In PubChem BioAssay (NCI):
“And” between values parts separate entries of the source, which are not always exact repeats. Equal entries are not always repeated.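 Dose response: 5 concentrations. Exposure: 48 h. Format: 96-well plates. Endpoint: linear interpolation; highest concentration if not reached. GI50 = concentration required for 50% inhibition of growth. TGI denotes the concentration required for complete inhibition of growth.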

Legend:
Assay in all cases: NCI tumour cell line growth inhibition, 48 h
HOP-92 NSCLC = system: HOP-92 NSCLC
RPMI-8226 leukemia = system: RPMI-8226 leukemia
OVCAR-8 ovarian = system: OVCAR-8 ovarian
SK-MEL-5 melanoma = system: SK-MEL-5 melanoma
COLO 205 colon = system: COLO 205 colon
CAKI-1 renal = system: CAKI-1 renal
SW-620 colon = system: SW-620 colon
HCT-116 colon = system: HCT-116 colon
OVCAR-3 ovarian = system: OVCAR-3 ovarian
U251 CNS = system: U251 CNS

SMILES | TGI (HOP-92 NSCLC) | TGI (RPMI-8226 leukemia) | TGI (OVCAR-8 ovarian) | TGI (SK-MEL-5 melanoma) | TGI (COLO 205 colon) | TGI (CAKI-1 renal) | TGI (SW-620 colon) | TGI (HCT-116 colon) | TGI (OVCAR-3 ovarian) | TGI (U251 CNS) | GI50 (HOP-92 NSCLC) | GI50 (RPMI-8226 leukemia) | GI50 (OVCAR-8 ovarian) | GI50 (SK-MEL-5 melanoma) | GI50 (COLO 205 colon) | GI50 (CAKI-1 renal) | GI50 (SW-620 colon) | GI50 (HCT-116 colon) | GI50 (OVCAR-3 ovarian) | GI50 (U251 CNS)
O=C(O)CCC1CCc2cccc3occ1c23 (configuration not stated) | > 100 µM | > 100 µM | > 100 µM | > 100 µM | > 100 µM | > 100 µM | > 100 µM | > 100 µM | > 100 µM | > 100 µM | – | – | – | – | – | – | – | – | – | –
C/C(=N\NC(N)=O)C(CN(C)C)C(c1ccccc1)c1c(O)c2ccccc2oc1=O (configuration not stated) | 7.67 µM | > 100 µM | > 100 µM | > 100 µM | > 100 µM | > 100 µM | > 100 µM | > 100 µM | > 100 µM | > 100 µM | – | – | – | – | – | – | – | – | – | –
CCCCCc1c(C)[nH]c(/C=C2\N=C(c3ccc[nH]3)C=C2Oc2ccc(Cl)cc2)c1C | 0.314 µM and 0.361 µM | 1.23 µM and 1.57 µM | 1.98 µM | 0.0762 µM and 0.0818 µM | 1.77 µM and 1.18 µM | 0.542 µM and 0.312 µM | 2.58 µM and 1.29 µM | 1.22 µM and 1.18 µM | 0.516 µM and 0.45 µM | 0.749 µM and 0.192 µM | 0.0417 µM and 0.0176 µM | 0.0602 µM and 0.0163 µM | 0.16 µM and 0.0296 µM | 0.027 µM and 0.0234 µM | 0.129 µM and 0.0289 µM | 0.148 µM and 0.0343 µM | 0.0387 µM and 0.0228 µM | 0.0392 µM and 0.0147 µM | 0.107 µM and 0.0342 µM | 0.0658 µM and 0.019 µM
C=C(N=[N+]=[N-])c1cn(C2CC(O)C(CO)O2)c(=O)[nH]c1=O (configuration not stated) | > 100 µM | > 100 µM | > 100 µM | > 100 µM | > 100 µM | > 100 µM | > 100 µM | > 100 µM | > 100 µM | > 100 µM | – | – | – | – | – | – | – | – | – | –
C[C@H](CS(C)(=O)=O)Nc1ncc2cc(Oc3ccc(F)cc3F)c(=O)n(C)c2n1 | > 25 µM | > 25 µM | > 25 µM | > 25 µM | > 25 µM | > 25 µM | > 25 µM | > 25 µM | > 25 µM | > 25 µM | > 10.4 µM | > 25 µM | > 25 µM | > 25 µM | > 25 µM | > 25 µM | > 25 µM | > 25 µM | > 25 µM | > 25 µM
O=c1[nH]cc(OCC(F)(F)F)c(=O)[nH]1 | > 100 µM | > 100 µM | > 100 µM | > 100 µM | > 100 µM | > 100 µM | > 100 µM | > 100 µM | > 100 µM | > 100 µM | – | – | – | – | – | – | – | – | – | –
Cn1cc(-c2ccc(CNc3cc(-c4cnc5cc(OCCCN6CCCC6)ccn45)ncn3)cc2)cn1 | 22.2 µM | 5.55 µM | 3.61 µM | 2.85 µM | 25.9 µM | 3.15 µM | 3.17 µM | 2.98 µM | 4.13 µM | 2.77 µM | 3.89 µM | 2.15 µM | 1.81 µM | 1.51 µM | 10.6 µM | 1.65 µM | 1.61 µM | 1.57 µM | 1.9 µM | 1.43 µM
Cc1cn2c(/C=N/N/C(N)=N\N)c(-c3ccc(Cl)c([N+](=O)[O-])c3)nc2s1 | 13.3 µM | > 50 µM | – | 16.4 µM | – | 17.6 µM | – | – | 1.75 µM | 1.63 µM | 2.55 µM | 4.54 µM | – | 4.29 µM | – | 8.49 µM | – | – | 0.865 µM | 0.914 µM
Cc1c2ccncc2c(C)c2c1[nH]c1ccc(OC(C)(C)C)cc12 | 25.1 µM | 5.49 µM | 9.75 µM | 4.9 µM | 3.12 µM | 3.4 µM | 5.1 µM | 3.36 µM | 3.42 µM | 10.1 µM | – | – | – | – | – | – | – | – | – | –
Cc1cccc(C(C)(C)C)c1NC(=O)C(=O)C(c1cnc2ccccc2n1)[N+](=O)[O-] (configuration not stated) | > 100 µM | > 100 µM | > 100 µM | > 100 µM | > 100 µM | > 100 µM | > 100 µM | > 100 µM | – | > 100 µM | – | – | – | – | – | – | – | – | – | –
O=C(Nc1cc(Cl)c(Cl)cc1Cl)C(=O)C(C(=O)c1ccc(Cl)c(Cl)c1)C1OC(=O)c2ccccc21 (configuration not stated) | 31.4 µM | 86.7 µM | 28.5 µM | – | 33.8 µM | 46.3 µM | 38.3 µM | 28.8 µM | 32.6 µM | 30.9 µM | – | – | – | – | – | – | – | – | – | –
O=C1CC2C(=O)N(Cc3ccccc3)C1C(S(=O)(=O)c1ccccc1)C2S(=O)(=O)c1ccccc1 (configuration not stated) | 4.24 µM | 18.4 µM | 5.19 µM | 29.2 µM | 3.18 µM | 1.85 µM | 1.69 µM | 15.9 µM | 3.65 µM | 8.61 µM | – | – | – | – | – | – | – | – | – | –
CCc1c2c(nc3cccc(N)c13)-c1cc3c(c(=O)n1C2)COC(=O)[C@]3(O)CC | – | 0.56 µM | > 100 µM | – | – | 0.0349 µM | > 100 µM | – | – | 0.0348 µM and 0.03 µM | 0.00331 µM | 0.0932 µM | 0.00224 µM | 0.00329 µM | 0.328 µM | – | 0.011 µM | – | 0.237 µM | < 0.001 µM
COc1ccc(COCC(Cn2ccnc2)OCc2ccc(C(=O)O)cc2)cc1 (configuration not stated) | > 100 µM | > 100 µM | > 100 µM | > 100 µM | > 100 µM | > 100 µM | > 100 µM | > 100 µM | – | > 100 µM | – | – | – | – | – | – | – | – | – | –
Nc1nc(Nc2cccc(F)c2)nc2ccccc12 | 38.5 µM | 71.1 µM | > 100 µM | 28.3 µM | 34 µM | 44.9 µM | 36.6 µM | 46.4 µM | 49.6 µM | 34.6 µM | 13.8 µM | 23.1 µM | 31.9 µM | 14.5 µM | 15.9 µM | 16 µM | 17.1 µM | 18.1 µM | 21.1 µM | 16.8 µM
CC1=CC(=O)C(C(C)=Nc2ccccc2Cl)C(=O)O1 (configuration not stated) | > 100 µM | > 100 µM | > 100 µM | > 100 µM | > 100 µM | > 100 µM | > 100 µM | > 100 µM | > 100 µM | > 100 µM | 94.4 µM | > 100 µM | > 100 µM | > 100 µM | > 100 µM | > 100 µM | > 100 µM | > 100 µM | > 100 µM | > 100 µM
CC1CC2(CC[C@@H]1O)OCCO2 (some centres not stated) | > 100 µM | > 100 µM | > 100 µM | > 100 µM | > 100 µM | > 100 µM | > 100 µM | > 100 µM | > 100 µM | > 100 µM | – | – | – | – | – | – | – | – | – | –
